# Data taken from ChEMBL document CHEMBL1141575, “Preparation and in vitro biological evaluation of tetrapyrrole ethanolamide derivatives as potential anticancer agents” (Bioorg Med Chem Lett, 2008).
# Assays:
# [1] = Survival of human H209 cells at 1 uM under deem light after 96 hrs by MTT assay relative to control; format: functional; conditions: NCI-H209, 96 h, read-out: Survival
# SiHa [2] = assay: Survival of human SIHA cells at 100 uM under deem light after 96 hrs by MTT assay relative to control; format: functional; conditions: read-out: Survival
# [3] = Photohemolysis in human RBC in absence of light; format: ADME, cell-based; conditions: erythrocyte
# K562 [4] = assay: Survival of human K562 cells at 10 uM under deem light after 96 hrs by MTT assay relative to control; format: functional; conditions: K562, 96 h, read-out: Survival
# SiHa [5] = assay: Survival of human SIHA cells at 1 uM under deem light after 96 hrs by MTT assay relative to control; format: functional; conditions: read-out: Survival
# HeLa [6] = assay: Survival of human HeLa cells at 10 uM under deem light after 96 hrs by MTT assay relative to control; format: functional; conditions: read-out: Survival
# [7] = Survival of human MDA-MB cells at 50 uM under deem light after 96 hrs by MTT assay relative to control; format: functional; conditions: read-out: Survival
# Raji [8] = assay: Survival of human Raji cells at 0.1 uM under deem light after 96 hrs by MTT assay relative to control; format: functional; conditions: read-out: Survival
# SiHa [9] = assay: Cytotoxicity against human SIHA cells under deem light after 96 hrs by MTT assay; format: functional, cell-based
# [10] = Survival of human MDA-MB cells at 10 uM under deem light after 96 hrs by MTT assay relative to control; format: functional; conditions: read-out: Survival
# SiHa [11] = assay: Survival of human SIHA cells at 10 uM under deem light after 96 hrs by MTT assay relative to control; format: functional; conditions: read-out: Survival
# Raji [12] = assay: Survival of human Raji cells at 10 uM under deem light after 96 hrs by MTT assay relative to control; format: functional; conditions: read-out: Survival
# NCI-H69 [13] = assay: Survival of human H69 cells at 50 uM under deem light after 96 hrs by MTT assay relative to control; format: functional; conditions: NCI-H69, 96 h, read-out: Survival
# K562 [14] = assay: Survival of human K562 cells at 1 uM under deem light after 96 hrs by MTT assay relative to control; format: functional; conditions: K562, 96 h, read-out: Survival
# NCI-H69 [15] = assay: Cytotoxicity against human H69 cells under deem light after 96 hrs by MTT assay; format: functional, cell-based; conditions: NCI-H69, 96 h
# Raji [16] = assay: Survival of human Raji cells at 50 uM under deem light after 96 hrs by MTT assay relative to control; format: functional; conditions: read-out: Survival
# [17] = Survival of human H209 cells at 10 uM under deem light after 96 hrs by MTT assay relative to control; format: functional; conditions: NCI-H209, 96 h, read-out: Survival
# [18] = Photohemolysis in human RBC at 375 nM under exposure to light for 10 mins; format: ADME, cell-based, Erythrocyte; conditions: human red blood cells, read-out: Activity
# [19] = Photohemolysis in human RBC assessed as concentration required to 50% hemolysis under light exposure for 10 mins; format: ADME, cell-based, Erythrocyte; conditions: human red blood cells, read-out: Activity
# [20] = Survival of human MDA-MB cells at 100 uM under deem light after 96 hrs by MTT assay relative to control; format: functional; conditions: read-out: Survival
# [21] = Cytotoxicity against human 2780.9S cells under deem light after 96 hrs by MTT assay; format: functional, cell-based
# [22] = Survival of human 2780.9S cells at 10 uM under deem light after 96 hrs by MTT assay relative to control; format: functional; conditions: read-out: Survival
# Raji [23] = assay: Cytotoxicity against human Raji cells under deem light after 96 hrs by MTT assay; format: functional, cell-based
# [24] = Survival of human MDA-MB cells at 1 uM under deem light after 96 hrs by MTT assay relative to control; format: functional; conditions: read-out: Survival
# [25] = Survival of human H209 cells at 50 uM under deem light after 96 hrs by MTT assay relative to control; format: functional; conditions: NCI-H209, 96 h, read-out: Survival
# K562 [26] = assay: Survival of human K562 cells at 0.1 uM under deem light after 96 hrs by MTT assay relative to control; format: functional; conditions: K562, 96 h, read-out: Survival
# [27] = Survival of human 2780.9S cells at 100 uM under deem light after 96 hrs by MTT assay relative to control; format: functional; conditions: read-out: Survival
# Raji [28] = assay: Survival of human Raji cells at 100 uM under deem light after 96 hrs by MTT assay relative to control; format: functional; conditions: read-out: Survival
# HeLa [29] = assay: Survival of human HeLa cells at 100 uM under deem light after 96 hrs by MTT assay relative to control; format: functional; conditions: read-out: Survival
# SiHa [30] = assay: Survival of human SIHA cells at 50 uM under deem light after 96 hrs by MTT assay relative to control; format: functional; conditions: read-out: Survival
# [31] = Cytotoxicity against human MDA-MB cells under deem light after 96 hrs by MTT assay; format: functional, cell-based
# Daudi = assay: Cytotoxicity against human Daudi cells under deem light after 96 hrs by MTT assay; format: functional, cell-based
# [32] = Survival of human 2780.9S cells at 0.1 uM under deem light after 96 hrs by MTT assay relative to control; format: functional; conditions: read-out: Survival
# HeLa [33] = assay: Survival of human HeLa cells at 0.1 uM under deem light after 96 hrs by MTT assay relative to control; format: functional; conditions: read-out: Survival
# K562 [34] = assay: Survival of human K562 cells at 100 uM under deem light after 96 hrs by MTT assay relative to control; format: functional; conditions: K562, 96 h, read-out: Survival
# K562 [35] = assay: Cytotoxicity against human K562 cells under deem light after 96 hrs by MTT assay; format: functional, cell-based; conditions: K562, 96 h
# NCI-H69 [36] = assay: Survival of human H69 cells at 100 uM under deem light after 96 hrs by MTT assay relative to control; format: functional; conditions: NCI-H69, 96 h, read-out: Survival
# HeLa [37] = assay: Survival of human HeLa cells at 1 uM under deem light after 96 hrs by MTT assay relative to control; format: functional; conditions: read-out: Survival
# [38] = Survival of human H209 cells at 100 uM under deem light after 96 hrs by MTT assay relative to control; format: functional; conditions: NCI-H209, 96 h, read-out: Survival
# [39] = Survival of human H209 cells at 0.1 uM under deem light after 96 hrs by MTT assay relative to control; format: functional; conditions: NCI-H209, 96 h, read-out: Survival
# HeLa [40] = assay: Cytotoxicity against human HeLa cells under deem light after 96 hrs by MTT assay; format: functional, cell-based
# NCI-H69 [41] = assay: Survival of human H69 cells at 0.1 uM under deem light after 96 hrs by MTT assay relative to control; format: functional; conditions: NCI-H69, 96 h, read-out: Survival
# NCI-H69 [42] = assay: Survival of human H69 cells at 1 uM under deem light after 96 hrs by MTT assay relative to control; format: functional; conditions: NCI-H69, 96 h, read-out: Survival
# NCI-H69 [43] = assay: Survival of human H69 cells at 10 uM under deem light after 96 hrs by MTT assay relative to control; format: functional; conditions: NCI-H69, 96 h, read-out: Survival
# [44] = Survival of human 2780.9S cells at 50 uM under deem light after 96 hrs by MTT assay relative to control; format: functional; conditions: read-out: Survival
# K562 [45] = assay: Survival of human K562 cells at 50 uM under deem light after 96 hrs by MTT assay relative to control; format: functional; conditions: K562, 96 h, read-out: Survival
# HeLa [46] = assay: Survival of human HeLa cells at 50 uM under deem light after 96 hrs by MTT assay relative to control; format: functional; conditions: read-out: Survival
# [47] = Survival of human 2780.9S cells at 1 uM under deem light after 96 hrs by MTT assay relative to control; format: functional; conditions: read-out: Survival
# Raji [48] = assay: Survival of human Raji cells at 1 uM under deem light after 96 hrs by MTT assay relative to control; format: functional; conditions: read-out: Survival
# [49] = Photohemolysis in human RBC assessed as concentration required to 50% hemolysis under light exposure for 5 mins; format: ADME, cell-based, Erythrocyte; conditions: human red blood cells, read-out: Activity
# [50] = Survival of human MDA-MB cells at 0.1 uM under deem light after 96 hrs by MTT assay relative to control; format: functional; conditions: read-out: Survival
smiles,measurement,setting,value
CC1=C(CCC(=O)O)c2cc3nc(cc4[nH]c(cc5[nH]c(cc1n2)c(C)c5C(C)O)c(C)c4C(C)O)C(C)=C3CCC(=O)O (stereo unspecified) [HAEMAPORPHYRIN],viability at 1 µM,[1],94%
same,viability at 100 µM,SiHa [2],44.5%
same,Activity,[3],Non-toxic
same,viability at 10 µM,K562 [4],82.5%
same,viability at 1 µM,SiHa [5],92.2%
same,viability at 10 µM,HeLa [6],113%
same,viability at 50 µM,[7],107%
same,viability at 0.1 µM,Raji [8],92.1%
same,IC50,SiHa [9],56 µM
same,viability at 10 µM,[10],104%
same,viability at 10 µM,SiHa [11],81.6%
same,viability at 10 µM,Raji [12],71.4%
same,viability at 50 µM,NCI-H69 [13],82.9%
same,viability at 1 µM,K562 [14],82.7%
same,IC50,NCI-H69 [15],70 µM
same,viability at 50 µM,Raji [16],27.6%
same,viability at 10 µM,[17],99.5%
same,"hemolysis at 10 min, 0.375 µM",[18],100%
same,HC50 at 10 min,[19],460 nM
same,viability at 100 µM,[20],82.8%
same,IC50,[21],> 100 µM
same,viability at 10 µM,[22],75.5%
same,IC50,Raji [23],57 µM
same,viability at 1 µM,[24],115%
same,viability at 50 µM,[25],93.3%
same,viability at 0.1 µM,K562 [26],68.7%
same,viability at 100 µM,[27],43.8%
same,viability at 100 µM,Raji [28],17%
same,viability at 100 µM,HeLa [29],104%
same,viability at 50 µM,SiHa [30],52.6%
same,IC50,[31],> 100 µM
same,IC50,Daudi,15 µM
same,viability at 0.1 µM,[32],102%
same,viability at 0.1 µM,HeLa [33],85.8%
same,viability at 100 µM,K562 [34],32.1%
same,IC50,K562 [35],44 µM
same,viability at 100 µM,NCI-H69 [36],62.6%
same,viability at 1 µM,HeLa [37],103%
same,viability at 100 µM,[38],84.6%
same,viability at 0.1 µM,[39],91.4%
same,IC50,HeLa [40],71 µM
same,viability at 0.1 µM,NCI-H69 [41],92.2%
same,viability at 1 µM,NCI-H69 [42],105%
same,viability at 10 µM,NCI-H69 [43],104%
same,viability at 50 µM,[44],81.4%
same,viability at 50 µM,K562 [45],55.9%
same,viability at 50 µM,HeLa [46],109%
same,viability at 1 µM,[47],82.5%
same,viability at 1 µM,Raji [48],89.6%
same,HC50 at 5 min,[49],170 nM
same,viability at 0.1 µM,[50],136%
